According to BindingDB's records for doi:10.1021/acsmedchemlett.7b00315 (Astrazeneca, 2017):

Legend:
[1] = Antagonist activity at human CCR4 expressed in Th2 cells coexpressing CD45RA+ assessed as inhibition of CCL22 induced chemotaxis
[2] = Antagonist activity at human CCR4 expressed in Th2 cells coexpressing CD45RA+ assessed as inhibition of CCL17 induced chemotaxis
[3] = Antagonist activity at CCR4 in human primary Th2 cells by chemotaxis assay

Structure (SMILES) | IC50 [1] [nM] | IC50 [2] [nM] | IC50 [3] [nM]
COc1nccnc1NS(=O)(=O)c1cccc(Cl)c1Cl | 501 | 501 | 
COc1nc(F)cnc1NS(=O)(=O)c1cccc(Cl)c1Cl | 158 | 316 | 
COc1nc(Br)cnc1NS(=O)(=O)c1ccc(Cl)s1 |  |  | 200
